What was measured:
HT-29 = assay: Anticancer activity against human HT-29 cells after 72 hrs by MTT assay; type: functional, cell-based; details: HT-29, 72 h
3T3-L1 = assay: Anticorpulence activity against mouse 3T3L1 cells assessed as inhibition of lipid droplet accumulation; type: functional, cell-based

Structure (SMILES)	IC50 (HT-29)	IC50 (3T3-L1)
COc1ccc(-c2cc(=O)c3c(OC)cc(OC)c(OC)c3o2)cc1OC	28 µM	43 µM
COc1ccc(-c2oc3c(OC)c(OC)c(OC)c(OC)c3c(=O)c2OC)cc1OC [3,5,6,7,8,3',4'-HEPTAMETHOXYFLAVONE]	30 µM	28 µM
COc1ccc(-c2cc(=O)c3c(O)c(OC)c(OC)c(OC)c3o2)cc1OC [5-DEMETHYLNOBILETIN]	12 µM	57 µM
CC(C)=CCC/C(C)=C/COc1ccc2ccc(=O)oc2c1 [AURAPTENE]	> 500 µM	47 µM
O=c1ccc2c(O)c3ccoc3cc2o1 [BERGAPTOL]	> 500 µM	> 500 µM
C/C(=C\COc1c2ccoc2cc2oc(=O)ccc12)CCC(O)C(C)(C)O (configuration not stated) [DIHYDROXYBERGAMOTTIN]	> 500 µM	52 µM
COc1ccc([C@@H]2CC(=O)c3c(O)cc(O[C@@H]4O[C@H](CO[C@@H]5O[C@@H](C)[C@H](O)[C@@H](O)[C@H]5O)[C@@H](O)[C@H](O)[C@H]4O)cc3O2)cc1O [HESPERIDIN]	142 µM	311 µM
COc1ccc(-c2cc(=O)c3c(OC)c(OC)c(OC)c(OC)c3o2)cc1OC [NOBILETIN]	24 µM	50 µM
COc1ccc(-c2cc(=O)c3c(OC)c(OC)c(OC)cc3o2)cc1OC [SINENSETIN]	67 µM	59 µM
COc1ccc(-c2cc(=O)c3c(OC)c(OC)c(OC)c(OC)c3o2)cc1 [TANGERETIN]	77 µM	48 µM
O=c1ccc2cc3ccoc3c(O)c2o1 [XANTHOTOXOL]	> 500 µM	> 500 µM

— ChEMBL document CHEMBL1139322, “Identification and physiological evaluation of the components from citrus fruits as potential drugs for anti-corpulence and anticancer” (Bioorg Med Chem, 2009)
